Experimental data published in ChEMBL document CHEMBL5032514, “Portobelamides A and B and Caciqueamide, Cytotoxic Peptidic Natural Products from a Caldora sp. Marine Cyanobacterium” (2021).

What follows are molecules tested on NCI-H460 (assay: Cytotoxicity against human NCI-H460 cells assessed as cell survival at 0.9 uM measured after 48 hrs by MTT assay). Conditions: read-out: Activity.
Format: functional

**Q.** Which viability at 0.9 µM does the source give for `C#CCCC[C@@H]1NC(=O)[C@H](C(C)C)N(C)C(=O)[C@H](COC)N(C)C(=O)[C@H](C(C)C)NC(=O)[C@H](COC)N(C)C(=O)[C@H](C)N(C)C(=O)[C@H](C(C)C)N(C)C(=O)[C@@H]2CCCN2C(=O)[C@H](C(C)C)NC(=O)[C@H]([C@@H](C)CC)N(C)C(=O)[C@H](C(C)C)N(C)C(=O)[C@@H](C(C)C)OC(=O)[C@H]1C` here?
**A.** Its viability at 0.9 µM is 97%.

**Q.** `C#CCCC[C@@H]1NC(=O)[C@H](C(C)C)N(C)C(=O)[C@H](C)N(C)C(=O)[C@H](COC)NC(=O)[C@H](C(C)C)N(C)C(=O)[C@H](CC(C)C)N(C)C(=O)[C@@H]2CCCN2C(=O)[C@H](C(C)C)NC(=O)[C@H](COC)N(C)C(=O)[C@H](C(C)C)NC(=O)[C@@H](C(C)C)OC(=O)[C@H]1C` was tested. Which viability at 0.9 µM did it give?
**A.** Its viability at 0.9 µM is 33%.

**Q.** For `C/C=C(\NC(=O)C(NC(=O)C(C)C(O)CCCCCCCCCCCCC(=O)CCCC)C(C)O)C(=O)NC(C)c1nc(C(=O)NC(C)C(C)=O)cs1` (stereo not drawn), which viability at 0.9 µM is on record?
**A.** Its viability at 0.9 µM is 78%.
